We go through 13 compounds from patent publication EP0974354A1, “Artemisinin derivatives” (The Hong Kong University of Science & Technology, priority 1998, dated 2000).

SMILES strings stand for the structures. ≈ marks a conversion by molar mass, not a printed value. Where “and” joins values, the source holds several entries; their conditions need not be identical. Equal entries are not always repeated. Where two headings read alike, the source gives them in different places.

Test [1] deals with Plasmodium Falciparum D6 Strain (Chloroquine sensitive). The test can be described thus: In vitro screening against Plasmodium falciparum, radiolabelled hypoxanthine incorporation, D6 strain. The settings on record: for IC50 / IC90: Plasmodium falciparum. The format is cell-based. The method, then:
(§1) Two parasite strains - W2 resistant to chloroquine, and D6 sensitive to chloroquine but resistant to mefloquine were used.
(§2) The assay relies on incorporation of radiolabelled hypoxanthine by the parasite and inhibition of incorporation is attributed to activity of known or candidate antimalarial drugs. For each assay, proven antimalarials such as chloroquine, mefloquine, quinine, artemisinin and pyrimethamine were used as controls. The incubation period was 66 hours, and the starting parasitemia was 0.2% with 1% hematocrit. The medium was an RPMI-1640 culture with no folate or p-aminobenzoic acid. […] If a compound was submitted with no prior knowledge of activity, it was dissolved directly in dimethyl sulphoxide (DMSO), and diluted 400 fold with complete culture medium. […] These dilutions were performed automatically by a Biomek 1000 Liquid Handling System in 96-well microtiter plates. The diluted drugs were then transferred to test plates, 200 µl of parasitized erythrocytes were added, and incubated at 37°C in a controlled environment of 5% CO2, 5% O2 and 90% N2. After 42 hours, 25 µl of ^3H-hypoxanthine was added, and the plates incubated for an additional 24 hours. After 66 hours, the plates were frozen at -70°C to lyse the red cells, and then thawed and harvested onto glass fiber filter mats in a 96-well harvester. The filter mats were then counted in a scintillation counter.
(§3) A prescreen format can be used wherein a 3-dilution assay may be used to determine activity at high medium or low concentrations. The concentrations were selected as 50,000, 500 and 50 ng ml^-1. These were performed in duplicate on a 96-well format plate with 14 test compounds and one known (standard) compound per plate. The system was automated with a Biomek diluter for mixing and diluting the drugs, and adding drugs and parasites to a test plate.
(§4) In the prescreen format, if the […] […] If the AF has a ">", then the IC value is greater than the prescreen dilution value; thus "AF>250" means that the IC value is greater than 250 ng ml^-1 and no further screening is carried out. In such cases, values of 0.00 are entered for IC values.

The test system of test [2] is Plasmodium Falciparum W2 Strain (Chloroquine resistant). The test can be described thus: In vitro screening against Plasmodium falciparum, radiolabelled hypoxanthine incorporation, W2 strain. It is filed as cell-based. The note with it: for IC50 / IC90: Plasmodium falciparum; for IC50: read-out: In vitro activity: IC50, W2 Strain (Chloroquine resistant); for IC90: read-out: In vitro activity: IC90, W2 Strain (Chloroquine resistant). The method, then: as §1, §2, §3, §4

Test [3] concerns parasite of the genus Plasmodium. The test can be described thus: Antimalarial activity, general statement in the description, test not specified. The settings on record: qualitative statement.
Where [4] appears, read: D6 Strain (Chloroquine sensitive), 66 hours incubation, Albumax medium.
Setting [5] is: W2, 66 h, 66 hours incubation, Albumax medium.
The mark [6] stands for this setting: W2 Strain (Chloroquine resistant), 66 hours incubation, Albumax medium.
The mark [7] stands for this setting: D6, 66 h, D6 Strain (Chloroquine sensitive), 66 hours incubation, Albumax medium, read-out: In vitro activity: IC50.
Where [8] appears, read: D6, 66 h, D6 Strain (Chloroquine sensitive), 66 hours incubation, Albumax medium, read-out: In vitro activity: IC90.

The term IC50 denotes the concentration that gives 50% inhibition. One may read the IC90 as the concentration needed for an effect of 90%.

As for `C[C@H]1[C@@H](OCC(F)(F)F)O[C@@H]2O[C@@]3(C)CC[C@H]4[C@H](C)CC[C@@H]1[C@@]24OO3` [Example 1, 10β-[(2',2',2'-trifluoroethyl)oxy]dihydroartemisinin], the “In vitro activity: (IC10)” value in test [1] (setting [4]) is 0.57 ng/mL; in test [2] (setting [6]), 0.19 ng/mL and 0.20 ng/mL. Further, the IC50 was 0.77 ng/mL (≈ 2.1 nM) in test [1] (D6, 66 h, read-out: In vitro activity: IC50) and 0.26 ng/mL (≈ 0.71 nM) in test [2] (setting [5]). For the same compound, the IC90 in test [1] (D6, 66 h, read-out: In vitro activity: IC90) was 1.04 ng/mL (≈ 2.84 nM). The “In vitro activity: IC50” value in test [2] (setting [6]) stood at 0.51 ng/mL.

On to `C[C@H]1[C@@H](Oc2ccnc3cc(C(F)(F)F)ccc23)O[C@@H]2O[C@@]3(C)CC[C@H]4[C@H](C)CC[C@@H]1[C@@]24OO3` [Example 2, 10β-[4'-(7'-trifluoromethylquinolinoxy)]dihydroartemisinin], for which the “In vitro activity: (IC10)” value in test [1] (setting [4]) amounted to 0.55 ng/mL; in test [2] (W2, 66 h), 0.56 ng/mL. The IC50 is 0.71 ng/mL (≈ 1.48 nM) in test [1] (setting [7]) and 0.67 ng/mL (≈ 1.4 nM) in test [2] (setting [5]). For the same compound, the IC90 turned out to be 0.93 ng/mL (≈ 1.94 nM) in test [1] (setting [8]) and 0.81 ng/mL (≈ 1.69 nM) in test [2] (setting [5]). Besides, in test [3], the antimalarial activity result is reported as “particularly interesting antimalarial activity”.

In the case of `C[C@H]1[C@@H](Oc2ccnc3ccccc23)O[C@@H]2O[C@@]3(C)CC[C@H]4[C@H](C)CC[C@@H]1[C@@]24OO3` [Example 15], in test [1] (setting [4]), the “In vitro activity: (IC10)” value was 0.23 ng/mL and 0.41 ng/mL; the “In vitro activity: IC50” value worked out at 0.61 ng/mL; the “In vitro activity: IC90” value turned out to be 0.91 ng/mL. Also, in test [1] (setting [7]), the IC50 is 0.43 ng/mL (≈ 1.04 nM). The IC90 in test [1] (setting [8]) came to 0.8 ng/mL (≈ 1.94 nM). Further, in test [2] (setting [5]), the IC50 turned out to be 1.24 ng/mL (≈ 3.01 nM) and the IC90 turned out to be 6.45 ng/mL (≈ 15.7 nM). Further, in test [2] (W2, 66 h), the “In vitro activity: IC50” value is 2.03 ng/mL and the “In vitro activity: IC90” value came to 9.11 ng/mL.

For `C[C@H]1[C@@H](OCc2cccc(F)c2)O[C@@H]2O[C@@]3(C)CC[C@H]4[C@H](C)CC[C@@H]1[C@@]24OO3` [Example 9], the “In vitro activity: (IC10)” value was 0.08 ng/mL in test [1] (setting [4]) and 0.35 ng/mL in test [2] (W2, 66 h). The IC50 is 0.36 ng/mL (≈ 0.917 nM) in test [1] (setting [7]) and 0.45 ng/mL (≈ 1.15 nM) in test [2] (setting [5]). Besides, the IC90 was 1.7 ng/mL (≈ 4.33 nM) in test [1] (setting [8]) and 0.59 ng/mL (≈ 1.5 nM) in test [2] (setting [5]).

In the case of `C[C@H]1[C@@H](OCc2cccc3c2ccc2ccccc23)O[C@@H]2O[C@@]3(C)CC[C@H]4[C@H](C)CC[C@@H]1[C@@]24OO3` [Example 13], the “In vitro activity: (IC10)” value in test [1] (setting [4]) is 0.44 ng/mL; in test [2] (W2, 66 h), 0.50 ng/mL. The IC50 in test [1] (setting [7]) was found to be 0.58 ng/mL (≈ 1.22 nM); in test [2] (setting [5]) it was 0.62 ng/mL (≈ 1.31 nM). For the same compound, the IC90 was found to be 0.77 ng/mL (≈ 1.62 nM) in test [1] (setting [8]) and 0.79 ng/mL (≈ 1.66 nM) in test [2] (setting [5]).

Turning to `C[C@H]1[C@@H](OCc2ccccc2F)O[C@@H]2O[C@@]3(C)CC[C@H]4[C@H](C)CC[C@@H]1[C@@]24OO3` [Example 8], the “In vitro activity: (IC10)” value in test [1] (setting [4]) worked out at 0.46 ng/mL; in test [2] (W2, 66 h), 0.63 ng/mL. The IC50 in test [1] (setting [7]) stood at 0.75 ng/mL (≈ 1.91 nM); in test [2] (setting [5]) it was 0.83 ng/mL (≈ 2.11 nM). Further, the IC90 in test [1] (setting [8]) worked out at 1.22 ng/mL (≈ 3.11 nM); in test [2] (setting [5]), 1.08 ng/mL (≈ 2.75 nM).

As to `CC1CCC2C(C)C(Oc3ccnc4ccccc34)OC3OC4(C)CCC1C32OO4` (stereo not drawn) [10β-(4'-Quinolinoxy)dihydroartemisinin], the antimalarial activity result in test [3] is recorded as “particularly interesting antimalarial activity”.

As for `C[C@H]1[C@@H](OCc2ccc3ccc4cccc5ccc2c3c45)O[C@@H]2O[C@@]3(C)CC[C@H]4[C@H](C)CC[C@@H]1[C@@]24OO3` [Example 14], the “In vitro activity: (IC10)” value in test [1] (setting [4]) was found to be 29.09 ng/mL; in test [2] (W2, 66 h), 11.90 ng/mL. Besides, the results for the IC50 in test [1] (setting [7]) and in test [2] (setting [5]) were 37.9 ng/mL (≈ 76.1 nM) and 17.2 ng/mL (≈ 34.5 nM), respectively. Further, the IC90 in test [1] (setting [8]) turned out to be 49.5 ng/mL (≈ 99.2 nM); in test [2] (setting [5]), 24.9 ng/mL (≈ 49.9 nM).

For `C[C@H]1[C@@H](OCc2c3ccccc3cc3ccccc23)O[C@@H]2O[C@@]3(C)CC[C@H]4[C@H](C)CC[C@@H]1[C@@]24OO3` [Example 12], in test [1] (D6, 66 h), the “In vitro activity: (IC10)” value came to 102.79 ng/mL. In test [1] (D6, 66 h, read-out: In vitro activity: IC50, D6 Strain (Chloroquine sensitive), 66 hours incubation, Albumax medium), the IC50 worked out at 136 ng/mL (≈ 286 nM). For the same compound, the IC90 in test [1] (D6, 66 h, read-out: In vitro activity: IC90, D6 Strain (Chloroquine sensitive), 66 hours incubation, Albumax medium) was determined as 179 ng/mL (≈ 378 nM). In test [2] (setting [5]), the IC50 was found to be 132 ng/mL (≈ 277 nM) and the IC90 is 173 ng/mL (≈ 365 nM). For the same compound, in test [2] (W2, 66 h), the “In vitro activity: IC50” value was 187.76 ng/mL and the “In vitro activity: IC90” value came out at 301.34 ng/mL.

As to `CC1CCC2C(C)C(OCc3ccc4ccccc4c3)OC3OC4(C)CCC1C32OO4` (single isomer, unassigned) [3(α-isomer), 10α-[(2'-naphthylmethyl)oxy]dihydroartemisinin], in test [1] (setting [4]), the “In vitro activity: (IC10)” value stood at 0.93 ng/mL, the “In vitro activity: IC50” value turned out to be 1.24 ng/mL and the “In vitro activity: IC90” value turned out to be 1.67 ng/mL. For the same compound, in test [2] (setting [6]), the “In vitro activity: (IC10)” value came out at 0.62 ng/mL, the “In vitro activity: IC50” value amounted to 1.54 ng/mL and the “In vitro activity: IC90” value amounted to 3.83 ng/mL.

In the case of `C[C@H]1[C@@H](OCc2ccc(F)cc2)O[C@@H]2O[C@@]3(C)CC[C@H]4[C@H](C)CC[C@@H]1[C@@]24OO3` [Example 10], the “In vitro activity: (IC10)” value came out at 0.20 ng/mL in test [1] (setting [4]) and 0.07 ng/mL in test [2] (W2, 66 h). For the same compound, the IC50 worked out at 0.34 ng/mL (≈ 0.866 nM) in test [1] (setting [7]) and 0.25 ng/mL (≈ 0.637 nM) in test [2] (setting [5]). Moreover, the IC90 in test [1] (setting [8]) is 0.58 ng/mL (≈ 1.48 nM); in test [2] (setting [5]), 0.86 ng/mL (≈ 2.19 nM).

For the compound `C[C@H]1[C@@H](OCc2ccc3ccccc3c2)O[C@@H]2O[C@@]3(C)CC[C@H]4[C@H](C)CC[C@@H]1[C@@]24OO3` [3(β-isomer), 10β-[(2'-naphthylmethyl)oxy]dihydroartemisinin], in test [1] (setting [4]), the “In vitro activity: (IC10)” value was 0.31 ng/mL and 0.51 ng/mL; the “In vitro activity: IC50” value worked out at 0.64 ng/mL; the “In vitro activity: IC90” value came to 0.80 ng/mL. In test [1] (setting [7]), the IC50 is 0.4 ng/mL (≈ 0.942 nM). The IC90 in test [1] (setting [8]) was determined as 0.53 ng/mL (≈ 1.25 nM). In test [2] (setting [5]), the 50% inhibitory concentration (IC50) came out at 0.64 ng/mL (≈ 1.51 nM) and the IC90 amounted to 0.78 ng/mL (≈ 1.84 nM). In test [2] (W2, 66 h), the “In vitro activity: IC50” value was 0.63 ng/mL and the “In vitro activity: IC90” value worked out at 1.25 ng/mL.

As to `C[C@H]1[C@H](OCc2cccc3ccccc23)O[C@@H]2O[C@@]3(C)CC[C@H]4[C@H](C)CC[C@@H]1[C@@]24OO3` [11(α-isomer)], the “In vitro activity: (IC10)” value in test [1] (setting [4]) is 1.03 ng/mL and 1.20 ng/mL. Besides, the “In vitro activity: IC50” value was 1.47 ng/mL in test [1] (setting [4]) and 0.70 ng/mL in test [2] (W2, 66 h). The “In vitro activity: IC90” value was 1.81 ng/mL in test [1] (setting [4]) and 1.17 ng/mL in test [2] (W2, 66 h). The IC50 amounted to 1.42 ng/mL (≈ 3.34 nM) in test [1] (setting [7]) and 0.67 ng/mL (≈ 1.58 nM) in test [2] (setting [5]). Moreover, the results for the IC90 in test [1] (setting [8]) and in test [2] (setting [5]) were 1.97 ng/mL (≈ 4.64 nM) and 1.01 ng/mL (≈ 2.38 nM), respectively.
